Assay results taken from patent publication US10238713B2, “Cyclic tetrapeptides and therapeutic applications thereof” (LODZ UNIVERSITY OF TECHNOLOGY, priority 2010, dated 2019).
Where two headings read alike, the source gives them in different places. Non-standard residues stand in square brackets, D forms with d. Residues, ends and D or L forms follow the SMILES beside them. *: point of attachment. d(β3hF) = N[C@@H](CC(=O)O)Cc1ccccc1; β3hF = N[C@H](CC(=O)O)Cc1ccccc1; tBu = CC(C)(C)*

Columns and labels:
[1] = system: PHA-induced proliferation of human peripheral blood mononuclear cells (PBMC); assay: Proliferative response of PBMC to PHA (MTT); format: cell-based; conditions: four-day incubation
Description: (§2) PBMC were isolated by centrifugation on Ficoll-uropoline gradient (density 1.077 g/ml) (Lymphoprep; PAA Laboratories), at 800×g for 20 min at 4° C. The interphase cells, consisting of lymphocytes (20%) and monocytes (80%) were then washed three times with Hanks' medium and re-suspended in the culture medium at density of 2×10^6 cells/ml.
The isolated PBMC were distributed into 96-well flat-bottom plates in 100 μl aliquots (2×10^5 cells/well). PHA was used at concentration of 5 μg/ml. The compounds were tested at concentrations of 1, 10 and 100 μg/ml. DMSO at appropriate dilutions served as control. After a four-day incubation in a cell culture incubator, the proliferative response of cells was determined by the colorimetric MTT method (Hansen et al., J. Immunol. Methods, 1989, pp. 203-210). The data are presented as a mean OD value from quadriplicate wells ±standard error (SE). The cultures “Control (−)” contained no mitogen (PHA). The cultures “Control (PHA)” contained PHA but not cyclic tetrapeptides.
Briefly, 25 μl of MTT (5 mg/ml) stock solution was added per well at the end of cell incubation and the plates were incubated for 3 h in a cell culture incubator. Then, 100 μl of the extraction buffer (20% SDS with 50% DMF, pH 4.7) was added. After additional overnight incubation, the optical density was measured at 550 nm (Dynatech 5000).

[2] = system: LPS-induced TNF-α production; format: cell-based; conditions: Table 2A
Description: Human whole blood was diluted 10-fold with RPMI-1640 medium and distributed to 24-well culture plates in 1 ml aliquots. LPS was added to the culture at a concentration of 1 μg/ml. The studied peptides were used at concentrations of 1, 10 and 100 μg/ml. After overnight incubation, the supernatants were harvested and frozen at −20° C. until cytokine determination. TNF-α activity was determined using a bioassay. Briefly, WEHI 164.13 cells (ATCC CRL 1751) were seeded at a concentration of 2×10^4 cells/well in quadriplicate. Increasing dilutions of the assayed supernatant were mixed with the target cells in the presence of actinomycin D (1 μg/ml). After 20 h of incubation, MTT was added into the wells, and the cultures were incubated for an additional 4 h. […] The detection limit of the assay was about 2.5 pg/ml. One unit of TNF-α activity was defined as an inverse of supernatant dilution where 50% cell death took place. The cultures labeled “Control (−)” contained no LPS. The cultures labeled “Control (LPS)” contained LPS and none of the studied compounds. Statistical analysis was not applied since the data derive from single cultures (wells).

human PBMC = assay: Toxicity test: PBMC survival in 24 h culture (MTT); conditions: ANOVA
Description: as §2
Appropriate dilutions of DMSO in RPMI 1640 medium were used as controls. Cell survival was determined by the MTT colorimetric method (Hansen et al., J. Immunol. Methods, 1989, pp. 203-210). The data are presented as a mean OD value from quadriplicate wells ±standard error (SE). The cultures “Control (−)” contained only cells in the culture medium.
The assay was performed per Hansen et al., J. Immunol. […] Briefly, 25 μl of MTT (5 mg/ml) stock solution was added per well at the end of cell incubation and the plates were incubated for 3 h in a cell culture incubator. Then, 100 μl of the extraction buffer (20% SDS with 50% DMF, pH 4.7) was added. After additional overnight incubation, the optical density was measured at 550 nm (Dynatech 5000).

[3] = system: mice, carrageenan-induced foot pad edema; assay: Carrageenan-induced foot-pad edema test; format: in vivo, mouse; conditions: 4 h after carrageenan; peptides 250 μg i.p., DEX 25 μg i.p., 30 min before; FIGS. 17A-17C
Description: (§1) In this and the air-pouch test, 1.5 mg peptide was dissolved in 300 μl of DMSO, then in 0.9% NaCl to achieve the desired dose (250 μg/0.2 ml or 100 μg/0.2 ml). Carrageenan (Sigma) was dissolved in 0.9% aqueous NaCl (overnight). 50 μl of 2% carrageenan solution was injected intradermally into hind foot pads. The peptides were given in a single 250 μg dose (0.2 ml) per mouse intraperitoneally (i.p.), 30 min before carrageenan administration. Dexamethasone (DEX) (Dexaven, Polfa, Poland), a reference drug, was given i.p. in dose 25 μg per mouse. Control mice were administered i.p. appropriately diluted solvent (DMSO in aqueous NaCl) instead of peptides. The foot pads of “background” (BG) mice were injected with 50 μl of 0.9% aqueous NaCl. Foot pad edema was measured with a spring caliper, 2 h, 3 h and 4 h after administration of carrageenan. The results are presented in FIGS. 17A, 17B and 17C as mean values of the antigen-specific increase of the foot pad thickness measured in 5 mice in each experimental group and expressed in mm ±SE (only results from measurements 4 h following administration of carrageenan are presented in figures). Statistics: FIG. 17A: Control vs: DEX P=0.0001; 4B8M P=0.0001; P25 NS (P=1.0000); P28 NS (P=1.0000); P31 NS (P=0.0528); P35 P=0.0008 (ANOVA of Kruskal-Wallis); FIG. 17B: Statistics: Control vs: P22 NS (P=1.0000); P26 NS (P=1.0000); P27 P=0.0050; P30 P=0.0004; P33-b NS (P=1.0000); SP00-b P=0.0001; P00S-b NS (P=1.0000) (ANOVA of Kruskal-Wallis); FIG. 17C: Statistics: Control vs: P21 P=0.0147; P23-2 P=0.0083; P24 P=0.0001; P29 NS (P=0.9999); P32 P=0.0001; P33 NS (P=0.6806); P34 NS (P=0.1920) (ANOVA).

[4] = system: mice, carrageenan air pouch; assay: Carrageenan air-pouch test (exudate cell number); format: in vivo, mouse; conditions: peptides 100 μg i.p. one hour before carrageenan, 24 h; FIGS. 18A-18B
Description: as §1
Air pouches were formed by subdermal injection into the dorsal region (in a halothane anesthesia) of 5 cm^3 of air (needle 23G x 11/4, 5 ml syringe). On day 3 the air pouches were given an additional 2 ml of air and an inflammatory process was elicited by an intra-pouch injection of 1% of carrageenan in 0.5 ml of 0.9% aqueous NaCl. The peptides were given i.p. at a dose of 100 μg one hour before carrageenan injection into the air pouch. The mice from the “background” (BG) group were given 0.9% aqueous NaCl i.p. and 0.9% aqueous NaCl into the air pouches. Control mice were given appropriately diluted DMSO i.p. and carrageenan into the air pouches. 24 h after carrageenan injection, the mice were sacrificed by cervical dislocation, the air pouches were supplemented with 1 ml of 0.9% aqueous NaCl and the exudates from the air pouches were aspirated using a syringe. The exudates were diluted with 0.9% aqueous NaCl and the cells were counted in a Bürker hemocytometer. Data are presented in FIGS. 18A and 18B as the mean values from 10 mice/group (cell number×10^6 per mouse) ±SE. Then the cells were centrifuged and 0.1 ml of the supernatant was saved for TNF-α determination (see Determination of TNF-α activity, above). The cell pellets were used to perform smears on microscopic glasses, which were stained with Giemsa and May-Grünwald reagents for evaluation of mast cell degranulation. Cell analysis was performed by a histologist using a light microscope and 1000× magnification. The content of intact and degranulated mast cells is given in percentage (mean values from 10 mice/group) ±SE. Statistics: FIG. 18A: BG vs Control P=0.0000; Control vs: DEX P=0.0034; 4B8M P=0.0005; P22 NS (P=0.7275); P26 P=0.0032; P27 NS (P=0.0659); P35 NS (P=1.0000) (ANOVA of Kruskal-Wallis); FIG. 18B: Control vs: P21 NS (P=0.322); P23-2 P=0.0020; P24 P=0.0001; P25 P=0.0418; P28 NS (P=0.3502); P29 NS (P=0.0582); P30 P=0.0006; P31 P=0.0078; P32 P=0.0340; P33 NS (P=0.9993); P34 NS (p=0.0566) (ANOVA).

[5] = compound 1 μg/ml, LPS 1 μg/ml, overnight
[6] = compound 100 μg/ml (DMSO only: 196)
[7] = 10 μg/ml, FIGS. 8A-8F (4B8M repeated per figure)
[8] = 100 μg/ml, FIGS. 8A-8F (4B8M repeated per figure)

| SMILES | PHA-induced PBMC proliferation, P vs DMSO at appropriate dilution ([1]; 1 μg/ml, FIGS. 9A-9B) | PHA-induced PBMC proliferation, P vs DMSO at appropriate dilution ([1]; 10 μg/ml, FIGS. 9A-9F) | PHA-induced PBMC proliferation, P vs DMSO at appropriate dilution ([1]; 100 μg/ml, FIGS. 9A-9F) | % inhibition vs. DMSO ([2]; compound 1 μg/ml) [%] | TNF-α [2, 5] [pg/mL] | % inhibition vs. DMSO ([2]; compound 10 μg/ml) [%] | TNF-α ([2]; compound 10 μg/ml) [pg/mL] | % inhibition vs. DMSO ([2]; compound 100 μg/ml) [%] | TNF-α [2, 6] [pg/mL] | PBMC survival, P vs DMSO at appropriate dilution (human PBMC; 1 μg/ml, FIGS. 8A-8B) | PBMC survival, P vs DMSO at appropriate dilution (human PBMC; [7]) | PBMC survival, P vs DMSO at appropriate dilution (human PBMC; [8]) | foot pad edema (increase of foot pad thickness), P vs Control [3] | air pouch exudate cell number, P vs Control [4] |
| --- | --- | --- | --- | --- | --- | --- | --- | --- | --- | --- | --- | --- | --- | --- |
| O=C1C[C@@H](Cc2ccccc2)NC(=O)[C@@H]2CCCN2C(=O)[C@@H]2CCCN2C(=O)[C@H](Cc2ccccc2)N1 [I-G] (cyclo(FPP[d(β3hF)])) | 0.9047 | 0.4297 | 0.9970 | 33.1 | 5463 | 33.8 | 5302 | 70.4 | 58 | – | – | – | – | – |
| O=C1C[C@H](Cc2ccccc2)NC(=O)[C@@H]2CCCN2C(=O)[C@@H]2CCCN2C(=O)[C@H](Cc2c[nH]c3ccccc23)N1 [I-L] (cyclo(PP[β3hF]W)) | – | – | – | – | – | – | – | – | – | 0.9999 | 1.0000 | 0.9957 | – | – |
| O=C1C[C@H](Cc2ccccc2)NC(=O)[C@H]2CCCN2C(=O)[C@@H]2CCCN2C(=O)[C@H](Cc2ccccc2)N1 [I-H] (cyclo(FP[dP][β3hF])) | 0.5198 | 1.0000 | 0.2037 | 12.8 | 7123 | 10.0 | 7203 | 43.9 | 110 | – | – | – | – | – |
| C[C@@H]1C[C@H]2[C@@H]3CCC4=CC(=O)C=C[C@]4(C)[C@@]3(F)[C@@H](O)C[C@]2(C)[C@@]1(O)C(=O)CO [DEX, dexamethasone, reference compound] | – | – | – | – | – | – | – | – | – | – | – | – | 0.0001 | 0.0034 |
| CC(C)(C)Oc1ccc(C[C@@H]2NC(=O)C[C@H](Cc3ccccc3)NC(=O)[C@@H]3CCCN3C(=O)[C@@H]3CCCN3C2=O)cc1 [I-N] (cyclo(PP[β3hF]Y(tBu))) | – | – | – | – | – | – | – | – | – | 1.0000 | 1.0000 | 1.0000 | – | – |
| CC(C)(C)Oc1ccc(C[C@H]2CC(=O)N[C@@H](Cc3ccccc3)C(=O)N3CCC[C@H]3C(=O)N3CCC[C@H]3C(=O)N2)cc1 [I-AF] | – | 0.9850 | 0.0010 | – | – | – | – | – | – | – | 1.0000 | 0.0090 | 1.0000 | – |
